Results: ChEMBL document CHEMBL1201862, “PubChem BioAssay data set” (2004)
Where “and” joins values, the source holds several entries; their conditions need not be identical. Identical values can stand only once.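 Five concentrations, 48 hours, 96-well plates. GI50 = concentration required for 50% inhibition of growth.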 Calls of active or inactive are those of the source. Cut-off read from the data, not from the text of the source: active = GI50 up to about 1.1 µM and inactive = higher.

What was measured:
Assay in all cases: growth of human tumour cells (NCI), 48 h
SK-MEL-2 = system: SK-MEL-2
COLO 205 = system: COLO 205
OVCAR-3 = system: OVCAR-3
ACHN = system: ACHN
HOP-62 = system: HOP-62
NCI-H522 = system: NCI-H522
TK-10 = system: TK-10
SF-295 = system: SF-295
SNB-75 = system: SNB-75
SNB-19 = system: SNB-19
RPMI-8226 = system: RPMI-8226
K562 = system: K562
HT-29 = system: HT-29
A549 = system: A549
786-0 = system: 786-0
EKVX = system: EKVX
SK-MEL-5 = system: SK-MEL-5
UO-31 = system: UO-31

Compound	GI50 (SK-MEL-2)	GI50 (COLO 205)	GI50 (OVCAR-3)	GI50 (ACHN)	GI50 (HOP-62)	GI50 (NCI-H522)	GI50 (TK-10)	GI50 (SF-295)	GI50 (SNB-75)	GI50 (SNB-19)	GI50 (RPMI-8226)	GI50 (K562)	GI50 (HT-29)	GI50 (A549)	GI50 (786-0)	GI50 (EKVX)	GI50 (SK-MEL-5)	GI50 (UO-31)
O=[N+]([O-])c1c(/C=N/Nc2ccccc2)oc(-c2ccc3c(c2)OCO3)c1-c1ccc2c(c1)OCO2	2.49 µM (inactive)	18.2 µM (inactive)	5.77 µM (inactive)	4.28 µM (inactive)	3.9 µM (inactive)	27 µM (inactive)	19 µM (inactive)	26.9 µM (inactive)	23.4 µM (inactive)	70.3 µM (inactive)	5.78 µM (inactive)	3.06 µM (inactive)	23.8 µM (inactive)	11 µM (inactive)	19.2 µM (inactive)	12.4 µM (inactive)	–	–
NC1=C(NC(=O)Cc2ccc(F)cc2)C(=O)c2ccccc2C1=O	> 60 µM (inactive)	68.2 µM (inactive)	26.4 µM (inactive)	59 µM (inactive)	> 52.4 µM (inactive)	22.7 µM (inactive)	30.9 µM (inactive)	33.3 µM (inactive)	29.2 µM (inactive)	23.1 µM (inactive)	> 100 µM (inactive)	58.7 µM (inactive)	> 100 µM (inactive)	85.3 µM (inactive)	37.7 µM (inactive)	> 100 µM (inactive)	14.4 µM (inactive)	58.1 µM (inactive)
COC(=O)C1Cc2c([nH]c3ccccc23)C(c2ccccc2O)N1 (stereo unspecified)	> 100 µM (inactive)	35.3 µM (inactive)	49.7 µM (inactive)	58.1 µM (inactive)	–	32.4 µM (inactive)	52 µM (inactive)	78.5 µM (inactive)	88.1 µM (inactive)	> 100 µM (inactive)	–	50 µM (inactive)	44.9 µM (inactive)	43 µM (inactive)	69.8 µM (inactive)	> 100 µM (inactive)	59 µM (inactive)	43.1 µM (inactive)
O=C(/C=C1\Nc2ccccc2C(=O)N1c1ccc(Cl)cc1)c1ccncc1	> 100 µM (inactive)	> 100 µM (inactive)	> 100 µM (inactive)	> 100 µM (inactive)	> 100 µM (inactive)	> 100 µM (inactive)	> 100 µM (inactive)	65 µM (inactive)	20.7 µM (inactive)	> 100 µM (inactive)	> 100 µM (inactive)	> 100 µM (inactive)	> 100 µM (inactive)	> 100 µM (inactive)	71.6 µM (inactive)	> 100 µM (inactive)	> 100 µM (inactive)	> 100 µM (inactive)
O=C(c1ccccc1)C1CCCCN1C(=O)c1ccccc1 (stereo unspecified)	> 100 µM (inactive)	> 100 µM (inactive)	> 100 µM (inactive)	> 100 µM (inactive)	> 100 µM (inactive)	> 100 µM (inactive)	> 100 µM (inactive)	–	> 100 µM (inactive)	> 100 µM (inactive)	> 100 µM (inactive)	> 100 µM (inactive)	–	> 100 µM (inactive)	> 100 µM (inactive)	–	> 100 µM (inactive)	> 100 µM (inactive)
Cc1ccc(S(=O)(=O)ON=C2CC(c3ccccc3)N(C)C(c3ccccc3)C2)cc1 (stereo unspecified)	15 µM (inactive)	15.6 µM (inactive) and 14.8 µM (inactive)	19.5 µM (inactive) and 20 µM (inactive)	19.8 µM (inactive)	29 µM (inactive) and 29.8 µM (inactive)	14.2 µM (inactive) and 12.1 µM (inactive)	21.8 µM (inactive) and 20.6 µM (inactive)	25.9 µM (inactive) and 25.1 µM (inactive)	23.6 µM (inactive) and 26 µM (inactive)	25.8 µM (inactive) and 32.7 µM (inactive)	18.3 µM (inactive)	–	20 µM (inactive) and 20.9 µM (inactive)	23.2 µM (inactive) and 20.6 µM (inactive)	21.2 µM (inactive) and 22.9 µM (inactive)	36.2 µM (inactive) and 35.2 µM (inactive)	17.4 µM (inactive) and 16.3 µM (inactive)	15.6 µM (inactive) and 16.9 µM (inactive)
N#CC1C(C#N)C2(c3ccccc3)C(c3ccccc3)=NN(c3ccccc3)CC12 (stereo unspecified)	> 100 µM (inactive)	–	> 100 µM (inactive)	> 100 µM (inactive)	–	–	> 100 µM (inactive)	> 100 µM (inactive)	36.4 µM (inactive)	> 100 µM (inactive)	> 100 µM (inactive)	> 100 µM (inactive)	–	> 100 µM (inactive)	> 100 µM (inactive)	> 100 µM (inactive)	> 100 µM (inactive)	> 100 µM (inactive)
CC(C)(C)c1cc(C(=O)O)c2c(c1)C(=O)OC2(c1ccccc1)c1ccccc1C(=O)O (stereo unspecified)	> 100 µM (inactive)	41.1 µM (inactive)	> 100 µM (inactive)	77.3 µM (inactive)	> 100 µM (inactive)	0.206 µM (active)	> 100 µM (inactive)	> 100 µM (inactive)	90.4 µM (inactive)	> 100 µM (inactive)	–	> 100 µM (inactive)	> 100 µM (inactive)	> 100 µM (inactive)	> 100 µM (inactive)	> 100 µM (inactive)	–	> 100 µM (inactive)
CSc1ccc(C2OC(=O)c3ccccc32)c2ccccc12 (stereo unspecified)	> 100 µM (inactive)	> 100 µM (inactive)	–	88.5 µM (inactive)	> 100 µM (inactive)	51.8 µM (inactive)	–	> 100 µM (inactive)	14.2 µM (inactive)	> 100 µM (inactive)	47.2 µM (inactive)	31 µM (inactive)	52.5 µM (inactive)	81.3 µM (inactive)	> 100 µM (inactive)	> 100 µM (inactive)	58.2 µM (inactive)	39.7 µM (inactive)
O=C1C2C=CC(C2)C(c2ccc(O)cc2)N1O (stereo unspecified)	> 100 µM (inactive)	> 100 µM (inactive)	> 100 µM (inactive)	> 100 µM (inactive)	> 100 µM (inactive)	> 100 µM (inactive)	> 100 µM (inactive)	> 100 µM (inactive)	> 100 µM (inactive)	> 100 µM (inactive)	> 100 µM (inactive)	> 100 µM (inactive)	> 100 µM (inactive)	> 100 µM (inactive)	> 100 µM (inactive)	> 100 µM (inactive)	> 100 µM (inactive)	> 100 µM (inactive)
COC(=O)[C@@]12C3=NO[C@]1(C(=O)OC)C(O[Si](C)(C)C(C)(C)C)[C@H]1OC(C)(C)O[C@H]1[C@@H]2C(OCc1ccccc1)CC3 (stereo partly specified)	28.8 µM (inactive)	57.1 µM (inactive)	46.5 µM (inactive)	13.2 µM (inactive)	–	–	84.1 µM (inactive)	37.3 µM (inactive)	17.9 µM (inactive)	25.8 µM (inactive)	> 100 µM (inactive)	> 100 µM (inactive)	67.3 µM (inactive)	34 µM (inactive)	70.5 µM (inactive)	89.1 µM (inactive)	35.1 µM (inactive)	41.3 µM (inactive)
COc1cc(/C=C\c2ccc(O)cc2)cc(OC)c1OC	2.64 µM (inactive)	5.57 µM (inactive)	2.32 µM (inactive)	8.17 µM (inactive)	–	2.88 µM (inactive)	18.2 µM (inactive)	2.47 µM (inactive)	3.94 µM (inactive)	2.56 µM (inactive)	0.402 µM (active)	–	15.3 µM (inactive)	6.1 µM (inactive)	8.59 µM (inactive)	9.93 µM (inactive)	1.18 µM (inactive)	10.4 µM (inactive)
